From patent US5368864A, “Formulation of oxypurinol and/or its alkali and alkaline earth salts” (Henning Berlin GmbH Chemie- und Pharmawerk, priority 1988, dated 1994)
Blank lines part the entries; values can stand above or below the compound they belong to.

What was measured:
[1] = associated with sparing solubility; cited from earlier work
[2] = cited from earlier work
[3] = Solubility as a function of pH value and time as compared to crystalline active substance; assay type: physicochemical; conditions: solids dispersion is test 3; for solubility at 1 h: 60 minutes
Protocol: (§1) The forms according to the invention were tested for solubility and rate of dissolution, respectively, in comparison to crystalline oxypurinol sodium monohydrate finely powdered in a mortar.
Solubility according to example 1 (test 3) as a function of pH value and
as compared to crystalline active substance (values in mg/liter)

[4] = Dissolution test (USP XXI dissolution tester) of oxypurinol sodium monohydrate and formulations in 0.1 N hydrochloric acid, spectrophotometric at 245 nm; assay type: physicochemical; conditions: for Dissolved amount of active substance (cumulated values): 0.1 N HCl, 37° C.
Protocol: The dispersion of solids containing oxypurinol was mixed with the adjuvants indicated, and pressed to give tablets having a content of 150 mg of active substance. Two tablets, corresponding to 300 mg of oxypurinol sodium monohydrate, were tested for liberation of active substance.
as §1
United States Pharmacopoeia (USP XXI)
0.1 N hydrochloric acid
Measurements were effected spectrophotometrically at 245 nm.

[5] = Solubility and pH of aqueous solutions (background statements); assay type: physicochemical

Compound: O=c1[nH]c(=O)c2c[nH]nc2[nH]1 [Oxypurinol, 4,6-dihydroxypyrazolo[3,4-d]pyrimidine]
- absorbability [1]: insufficient absorbability
- solubility in water and digestive juice [2]: sparingly soluble

- solubility at 5 min ([3]; pH = 1.5): 0.043 mg/mL
- solubility at 10 min ([3]; pH = 1.5): 0.062 mg/mL
- solubility at 5 min ([3]; pH = 3.0): 0.081 mg/mL
- solubility at 10 min ([3]; pH = 3.0): 0.11 mg/mL
- solubility at 1 h ([3]; pH = 3.0): 0.222 mg/mL
- solubility at 5 min ([3]; pH = 4.5): 0.085 mg/mL
- solubility at 10 min ([3]; pH = 4.5): 0.11 mg/mL
- solubility at 1 h ([3]; pH = 4.5): 0.243 mg/mL
- solubility at 5 min ([3]; pH = 6.5): 0.243 mg/mL
- solubility at 10 min ([3]; pH = 6.5): 0.261 mg/mL
- solubility at 1 h ([3]; pH = 6.5): 0.29 mg/mL
- solubility at 5 min ([4]; 0.1 n hcl, after 5 minutes): 0.043 mg/mL
- solubility at 1 h ([4]; 0.1 n hcl, after 60 minutes): 0.142 mg/mL
- solubility at 24 h ([4]; 0.1 n hcl, after 24 hours, read-out: maximum solubility): ~0.28 mg/mL
- solubility at 48 h ([4]; 0.1 n hcl, after another 24 hours, read-out: solubility as a constant for the substance): ~0.26 mg/mL
- Dissolved amount of active substance (cumulated values) ([4]; 5 min): 43 mg/L
- Dissolved amount of active substance (cumulated values) ([4]; 10 min): 62 mg/L
- Dissolved amount of active substance (cumulated values) ([4]; 20 min): 88 mg/L
- Dissolved amount of active substance (cumulated values) ([4]; 30 min): 115 mg/L
- Dissolved amount of active substance (cumulated values) ([4]; 45 min): 126 mg/L
- Dissolved amount of active substance (cumulated values) ([4]; 60 min): 142 mg/L
- Dissolved amount of active substance (cumulated values) ([4]; 180 min): 207 mg/L
- Dissolved amount of active substance (cumulated values) ([4]; 24 hrs): 280 mg/L
- Dissolved amount of active substance (cumulated values) ([4]; 48 hrs): 263 mg/L
- rate of dissolution ([4]; measurement time of 5 minutes): about 43 mg/5 min
- pH value of aqueous solutions ([5]; aqueous solution): 9.5
- solubility ([5]; water, 25° C., read-out: concentration permitted in aqueous solutions): ~15 mg/mL
Compound: O=c1[nH]c(=O)c2c[nH]nc2[nH]1 [oxypurinol sodium monohydrate, Oxypurinol sodium monohydrate]
